Test results published in patent US20100216825A1, “FUNGICIDAL COMPOSITIONS” (SYNGENTA CROP PROTECTION, INC., priority 2006, published 2010).
Values joined by “and” are separate entries in the source; they are usually repeats but may differ in a detail not shown here. Identical values can stand only once. Like-named read-outs stand apart in the source and are kept apart here.

Tests used:
Assay type in all cases: cell-based
Pyricularia oryzae = details: 24° C., 72 hrs
Pythium ultimum = assay: Action against Pythium ultimum (damping off), growth inhibition in nutrient broth (microtiter plate, photometric); details: each active ingredient at 0.67 ppm [mg/L] final medium; 24° C., 48 hrs
Alternaria solani = assay: Action against Alternaria solani (early blight), growth inhibition in nutrient broth (microtiter plate, photometric); details: 24° C., 48 hrs
Pyrenophora teres = assay: Action against Pyrenophora teres (net blotch), growth inhibition in nutrient broth (microtiter plate, photometric); details: 24° C., 48 hrs
Botrytis cinerea = assay: Action against Botrytis cinerea, growth inhibition in nutrient broth (microtiter plate, photometric); details: 24° C., 48-72 hrs
[1] = each active ingredient at 0.02 ppm [mg/L] final medium

## CC(C)C1C2CCC1c1c(NC(=O)c3cn(C)nc3C(F)F)cccc12 (racemic) [Cpd I, 3-difluoromethyl-1-methyl-1H-pyrazole-4-carboxylic acid (9-isopropyl-1,2,3,4-tetrahydro-1,4-methano-naphthalen-5-yl)-amide]
Pyricularia oryzae; each active ingredient at 0.01 ppm [mg/L] final medium
  Observed control in % (% Cobs) observed: 11%
Pyricularia oryzae; [1]
  Observed control in % (% Cobs) observed: 35%
Pythium ultimum
  Observed control in % (% Cobs) observed: 0%
Alternaria solani; each active ingredient at 0.004 ppm [mg/L] final medium
  Observed control in % (% Cobs) observed: 1% and 2%
Alternaria solani; each active ingredient at 0.008 ppm [mg/L] final medium
  Observed control in % (% Cobs) observed: 5% and 2%
Alternaria solani; each active ingredient at 0.016 ppm [mg/L] final medium
  Observed control in % (% Cobs) observed: 9% and 12% and 3%
Alternaria solani; [1]
  Observed control in % (% Cobs) observed: 46%
Pyrenophora teres; each active ingredient at 0.5 ppm [mg/L] final medium
  Observed control in % (% Cobs) observed: 70%
Pyrenophora teres; each active ingredient at 1 ppm [mg/L] final medium
  Observed control in % (% Cobs) observed: 79%
Botrytis cinerea; [1]
  Observed control in % (% Cobs) observed: 17%
Botrytis cinerea; each active ingredient at 0.07 ppm [mg/L] final medium
  Observed control in % (% Cobs) observed: 61%
Botrytis cinerea; each active ingredient at 0.22 ppm [mg/L] final medium
  Observed control in % (% Cobs) observed: 74%
Botrytis cinerea; each active ingredient at 0.67 ppm [mg/L] final medium
  Observed control in % (% Cobs) observed: 79%
